In paper PMC6274376, “Naturally Inspired Molecules as Multifunctional Agents for Alzheimer’s Disease Treatment” (Molecules, 2016):
Values joined by “and” are separate entries in the source; they are usually repeats but may differ in a detail not shown here. Identical values can stand only once. Counter-ions that a name gives are not always drawn. Each block holds one compound with its values, some of them ahead of it.

Tests used:
[1] = Cu(II) chelating assay (bathocuproinedisulfonic acid disodium salt, BCS); format: physicochemical
Description: Data were expressed as chelating activity percentage (Table 2).
The Cu(II) chelating activity of the compounds was determined using the bathocuproinedisulfonic acid disodium salt (BCS) assay as previously described. Briefly, 50 μL of a 0.25 mM CuSO4 solution were mixed for 2 min with 50 μL of 5–20 µM compound solution in 100 µL of HEPES buffer (15 mM). Hydroxylamine (1 mM) was added after 2 min in order to reduce non-chelated cupric ions into cuprous ones. Finally, 50 μL of BCS (5 mM) or water (blank) was added and the absorbance at 490 nm was measured by spectrophotometry using a multilabel plate reader (VICTOR™ X3, PerkinElmer, Waltham, MA, USA) immediately and at 5 min. Na2EDTA (5–20 µM) was used as a positive control. The ability of the test compounds to chelate cupric ions was calculated using the following equation: chelating activity (%) = [1 − (Abs BCS + compound/Abs BCS) × 100].

[2] = tested on: SH-SY5Y cells; assay: Neurotoxicity, MTT cell viability assay; format: cell-based, human; details: for IC50: Homo sapiens, SH-SY5Y cells, 24 h treatment, 1.25–40 µM, MTT, mean ± SD
Description: Cytotoxic effects in several in vitro or in vivo models have been reported for some chalcones. Therefore, to discriminate the neurotoxic concentrations of the conjugates 3–5 we evaluated the cell viability of human neuronal SH-SY5Y cells after 24 h treatment with these conjugate at different concentrations (1.25–40 μM) using the MTT assay. […] Thus, the presence of an α,β-unsatured carbonyl fragment seems to positively influence the degree of neuronal toxicity, leading to molecules endowed with a favorable SI.
Human neuronal (SH-SY5Y) cells were routinely grown in Dulbecco’s modified Eagle’ Medium (DMEM) supplemented with 10% fetal bovine serum, 2 mmol/L-glutamine, 50 U·mL^−1penicillin and 50 μg·mL^−1streptomycin at 37 °C in a humidified incubator with 5% CO2.
To evaluate the neurotoxicity of compounds, the SH-SY5Y cells were seeded in 96-well plates at 2 × 10^4 cells/well, incubated for 24 h and subsequently treated with various concentrations of compounds (1.25–40 µM) for 24 h at 37 °C in 5% CO2;. The cell viability in terms of mitochondrial metabolic function was evaluated by the reduction in 3-(4,5-dimethyl-2-thiazolyl)-2,5-diphenyl-2H-tetrazolium bromide (MTT) to formazan as previously described. The quantity of formazan was directly proportional to the number of viable cells. Briefly, the treatment medium was replaced with MTT (5 mg/mL) in phosphate-buffered saline (PBS) for 2 h at 37 °C in 5% CO2. After washing with PBS, the formazan crystals were dissolved with isopropanol. The amount of formazan was measured (570 nm, reference filter 690 nm) using a multilabel plate reader (VICTOR™ X3, PerkinElmer, Waltham, MA, USA). The neurotoxicity is expressed as concentration of compound resulting in 50% inhibition of cell viability.

[3] = molecular target: hBACE-1 (Homo sapiens, UniProt P56817); assay: BACE-1 FRET inhibition assay; format: biochemical; details: for IC50: FRET assay, average of multiple experiments each in triplicate, ± SEM; for inhibition at 5 µM: tested at 5 µM concentration
Chain of hBACE-1 (P56817 46-501): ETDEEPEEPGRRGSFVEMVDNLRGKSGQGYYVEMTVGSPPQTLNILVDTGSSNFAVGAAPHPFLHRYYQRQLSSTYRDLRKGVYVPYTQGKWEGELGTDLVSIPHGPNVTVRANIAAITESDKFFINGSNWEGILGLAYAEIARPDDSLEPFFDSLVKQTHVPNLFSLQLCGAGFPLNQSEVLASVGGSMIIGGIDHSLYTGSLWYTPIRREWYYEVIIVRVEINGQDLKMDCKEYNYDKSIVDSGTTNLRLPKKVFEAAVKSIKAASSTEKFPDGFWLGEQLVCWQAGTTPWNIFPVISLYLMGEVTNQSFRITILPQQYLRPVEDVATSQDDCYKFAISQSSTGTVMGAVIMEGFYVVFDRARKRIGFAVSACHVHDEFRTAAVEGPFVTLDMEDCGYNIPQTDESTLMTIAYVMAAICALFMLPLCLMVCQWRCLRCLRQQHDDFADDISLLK
Description: The new benzophenone-based hybrids 3–7 presented in this study were first evaluated for their in vitro ability to inhibit the enzymatic activity of BACE-1, by means of a biochemical assay performed using the fluorescence resonance energy transfer (FRET) methodology and in comparison to inhibitor IV [22] as reference compound (Table 1). For the most interesting compounds 3–5, endowed with the orto-hydroxycarbonyl substitution pattern, the neuroprotective potential was determined as lack of toxic effects on neuronal cell viability and as Cu(II) chelating activity (Table 2); moreover, their direct interactions with Cu(II) ion were confirmed by a UV-vis spectrophotometric study.
Inhibition studies were performed using the following procedure: 5 μL of test compound (or DMSO) were pre-incubated with 175 μL of enzyme (10.37 nM, final concentration) in 20 mM NaOAc pH 4.5 containing CHAPS (0.1% w/v) for 1 h at r.t.; M-2420 (3 μM, final concentration) was then added and left to react for 15 min. The fluorescence signal was read at λem = 405 nm (λexc = 320 nm). DMSO concentration in the final mixture was maintained below 5% (v/v) to guarantee no significant loss of enzyme activity.Fluorescence intensities with and without inhibitor were compared and the percent inhibition due to the presence of test compounds was calculated. The background signal was measured in control wells containing all the reagents, except theenzymeand subtracted. The % inhibition due to the presence of increasing test compound concentration was calculated by the following expression: 100 − (IFi/IFo × 100) where IFi and IFo are the fluorescence intensities obtained for the enzyme in the presence and in the absence of inhibitor, respectively. Inhibition curves were obtained for each compound by plotting the % inhibition versus the logarithm of inhibitor concentration in the assay sample. The linear regression parameters were determined and the IC50 extrapolated (GraphPad Prism 4.0, GraphPad Software Inc., San Diego, CA, USA).

[4] = molecular target: CatD (Homo sapiens, UniProt P07339); assay: CatD inhibition; format: biochemical; details: up to 0.5 μM
Chain of CatD (P07339 65-412): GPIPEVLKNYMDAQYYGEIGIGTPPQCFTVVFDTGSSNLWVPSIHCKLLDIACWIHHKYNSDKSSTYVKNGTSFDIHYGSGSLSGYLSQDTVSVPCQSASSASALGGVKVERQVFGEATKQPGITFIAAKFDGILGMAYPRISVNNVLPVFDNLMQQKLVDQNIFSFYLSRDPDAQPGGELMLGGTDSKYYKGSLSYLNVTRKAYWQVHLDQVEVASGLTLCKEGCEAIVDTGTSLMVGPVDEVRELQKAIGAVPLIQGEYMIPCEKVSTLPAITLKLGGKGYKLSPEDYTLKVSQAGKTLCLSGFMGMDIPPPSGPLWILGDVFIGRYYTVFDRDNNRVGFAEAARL

[5] = UV-vis spectrophotometric evaluation of Cu(II) ion complexation; format: physicochemical
Text: Chalcone conjugates 4 and 5 were investigated to evaluate their ability to complex Cu(II) ions via a UV-vis spectrophotometric study.
Therefore, we decided to carry on the spectrophotometric measurements in a mixed solvent: aqueous MOPS aqueous buffer […] pH 7.4 /DMF in 1:4 ratio, respectively. Flavonoids bearing the 4-carbonyl-5-hydroxyl chelation site have characteristic UV-vis spectra, characterized by a wide and non-structured band centred around 370–380 nm, with a molar extinction coefficient of 50,000 cm^−1·M^−1 that is attributed to HOMO-LUMO transition with a π-π* character.
All reagents and solvents were used as received (from Aldrich, St. Louis, MO, USA) without further purification: copper(II) sulphate hydrate (≥98%), 3-(N-Morpholino)propanesulfonic acid (MOPS, ≥99.5%), sodium hydroxide (≥98%), N,N-dimethylformamide (spectroscopic grade, DMF). A Milli-Q system (Millipore, Billerica, MA, USA) was used for the purification of water (resistivity ≥18.2 MΩ). MOPS bufferstock solution were obtained by a dissolution in Milli-Q water of 3-(N-morpholino)propane sulphonic acid to a final concentration of 10^−3 M. The pH was corrected with a solution of sodium hydroxide 1 N to a value of pH 7.4. Absorption spectra were recorded on a Perkin-Elmer Lambda 45 spectrophotometer at room temperature. Spectrophotometric titrations were performed as follows: stock solutions of ligands (ca. 10^−3 M) were prepared in DMF, diluted down to the desired concentration, in the quartz cuvette, in MOPS buffer 10^−3 M pH 7.4/DMF (1:4) to a final volume of 2.5 mL and then titrated by adding increasing amounts of Cu(II) (3.04 × 10^−3 Min DMF).

[6] = 5 µM compound, fixed 40 µM CuSO4
[7] = 10 µM compound, fixed 40 µM CuSO4
[8] = 20 µM compound, fixed 40 µM CuSO4, mean ± SD

Compound: COc1cc(/C=C/C(=O)c2ccc(OCCOc3ccc(C(=O)c4ccc(CN(C)Cc5ccccc5)cc4)cc3)cc2O)cc(OC)c1OC (as salt: HCl) [Compound 4, E-1-{4-[2-(4-4-Benzylmethylaminomethylbenzoylphenoxy)ethoxy]-2-hydroxyphenyl}-3-(3,4,5-trimethoxy-phenyl)prop-2-en-1-one]
- melting point: 220 to 222 °C

Compound: COc1cc(/C=C/C(=O)c2ccc(OCCO)cc2O)cc(OC)c1OC [Compound 2, (E)-1-[2-Hydroxy-4-(2-hydroxyethoxyphenyl)]-3-(3,4,5-trimethoxyphenyl)prop-2-en-1-one]
- inhibition at 5.2 µM ([3]; at 5.2 μM): 35.9%
- inhibition at 5 µM [3]: 20%
- melting point: 186 to 188 °C

Compound: disodium salt of ethylene diaminetetraacetic acid [Na2EDTA, reference compound]
- Cu(II)-Chelating Activity [1, 8]: 17.10 ± 1.44%

Compound: COc1ccc(C(=O)c2ccc(CN(C)Cc3ccccc3)cc2)cc1OC [Compound 1]
- inhibition at 5 µM [3]: 20%
- CatD inhibition [4]: not inhib.

Compound: COc1cc(/C=C/C(=O)c2ccc(OCCOc3ccc(C(=O)c4ccc(CN(C)Cc5ccccc5)cc4)cc3)cc2O)cc(OC)c1OC [Compound 4, E-1-{4-[2-(4-4-Benzylmethylaminomethylbenzoylphenoxy)ethoxy]-2-hydroxyphenyl}-3-(3,4,5-trimethoxy-phenyl)prop-2-en-1-one]
- Cu(II)-Chelating Activity [1, 6]: 7.16%
- Cu(II)-Chelating Activity [1, 7]: 10.77%
- Cu(II)-Chelating Activity [1, 8]: 15.07% and 15.07 ± 1.32%
- IC50 [2]: 23.7 ± 3.54 µM
- selectivity index SI ([2]; neurotoxicity IC50 versus BACE-1 IC50): around 22
- ability to complex Cu(II) ions ([5]; UV-vis spectra, MOPS buffer pH 7.4/DMF 1:4): able to chelate the selected ion
- association constant (order of magnitude) ([5]; estimated from titration data, 1:1 complex stoichiometry with Cu(II), MOPS pH 7.4/DMF 1:4): ~10^4
- IC50 [3]: 1.06 ± 0.15 µM

The next lines start with results.

- IC50 [3]: 3.18 ± 0.21 µM
Compound: CC(=O)c1ccc(OCCOc2ccc(C(=O)c3ccc(CN(C)Cc4ccccc4)cc3)cc2)cc1O [Compound 3, 1-{4-[2-(4-4-Benzylmethylaminomethylbenzoylphenoxy)ethoxy]-2-hydroxyphenyl}ethan-1-one]
- Cu(II)-Chelating Activity [1, 6]: 0.00%
- Cu(II)-Chelating Activity [1, 7]: 3.49%
- Cu(II)-Chelating Activity [1, 8]: 5.37% and 5.37 ± 0.16%
- IC50 [2]: 10.9 ± 1.63 µM

- IC50 [3]: 3.97 ± 0.33 µM
Compound: CN(Cc1ccccc1)Cc1ccc(C(=O)c2ccc(OCCOc3ccc4c(c3)OC(c3cccc5ccccc35)CC4=O)cc2)cc1 (centres unmarked) [Compound 7]

- melting point: 172 to 195 °C
Compound: CN(Cc1ccccc1)Cc1ccc(C(=O)c2ccc(OCCOc3ccc4c(c3)OC(c3cccc5ccccc35)CC4=O)cc2)cc1 (centres unmarked) (as salt: HCl) [Compound 7]

- melting point: 264 to 268 °C
Compound: CC(=O)c1ccc(OCCOc2ccc(C(=O)c3ccc(CN(C)Cc4ccccc4)cc3)cc2)cc1O (as salt: HCl) [Compound 3, 1-{4-[2-(4-4-Benzylmethylaminomethylbenzoylphenoxy)ethoxy]-2-hydroxyphenyl}ethan-1-one]

- IC50 [3]: 1.56 ± 0.23 µM
Compound: COc1cc(C2CC(=O)c3ccc(OCCOc4ccc(C(=O)c5ccc(CN(C)Cc6ccccc6)cc5)cc4)cc3O2)cc(OC)c1OC (centres unmarked) [Compound 6, 7-{2-[4-(4-Benzylmethylaminomethylbenzoyl)phenoxy]ethoxy}-2-(3,4,5-trimethoxyphenyl)chroman-4-one]

- melting point: 182 to 194 °C
Compound: COc1cc(C2CC(=O)c3ccc(OCCOc4ccc(C(=O)c5ccc(CN(C)Cc6ccccc6)cc5)cc4)cc3O2)cc(OC)c1OC (centres unmarked) (as salt: HCl) [Compound 6, 7-{2-[4-(4-Benzylmethylaminomethylbenzoyl)phenoxy]ethoxy}-2-(3,4,5-trimethoxyphenyl)chroman-4-one]

- melting point: 197 to 199 °C
Compound: CN(Cc1ccccc1)Cc1ccc(C(=O)c2ccc(OCCOc3ccc(C(=O)/C=C/c4cccc5ccccc45)c(O)c3)cc2)cc1 (as salt: HCl) [Compound 5, E-1-{4-[2-(4-4-Benzylmethylaminomethylbenzoylphenoxy)ethoxy]-2-hydroxyphenyl}-3-(naphthalen-1-yl)-prop-2-en-1-one]
